# Source: PubChem BioAssay (NCI)
#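 1) Cells in 96-well plates. 2) Compound, 48 h, 5 concentrations. 3) Linear interpolation between surrounding doses. 4) Unreached endpoint = highest concentration. At the TGI there is no net growth.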
# Columns and labels:
# Assay in all cases: growth of human tumour cells (NCI), 48 h
# [1] = test system: 786-0 renal
# [2] = test system: A549 NSCLC
# [3] = test system: ACHN renal
# [4] = test system: CAKI-1 renal
# [5] = test system: CCRF-CEM leukemia
# [6] = test system: COLO 205 colon
# [7] = test system: DLD-1 colon
# [8] = test system: DMS 114 small cell lung
# [9] = test system: DMS 273 small cell lung
# [10] = test system: HCT-116 colon
# [11] = test system: HCT-15 colon
# [12] = test system: HL-60(TB) leukemia
# [13] = test system: HOP-18 NSCLC
# [14] = test system: HOP-62 NSCLC
# [15] = test system: HOP-92 NSCLC
# [16] = test system: HT29 colon
# [17] = test system: IGROV1 ovarian
# [18] = test system: K-562 leukemia
# [19] = test system: KM12 colon
# [20] = test system: KM20L2 colon
# [21] = test system: LOX IMVI melanoma
# [22] = test system: LXFL 529 NSCLC
# [23] = test system: M14 melanoma
# [24] = test system: M19-MEL melanoma
# [25] = test system: MALME-3M melanoma
# [26] = test system: MOLT-4 leukemia
# [27] = test system: NCI-H226 lung
# [28] = test system: NCI-H23 lung
# [29] = test system: NCI-H460 lung
# [30] = test system: NCI-H522 lung
# [31] = test system: OVCAR-3 ovarian
# [32] = test system: OVCAR-4 ovarian
# [33] = test system: OVCAR-5 ovarian
# [34] = test system: OVCAR-8 ovarian
# [35] = test system: RPMI-8226 leukemia
# [36] = test system: RXF 393 renal
# [37] = test system: SF-268 CNS
# [38] = test system: SF-295 CNS
# [39] = test system: SF-539 CNS
# [40] = test system: SK-MEL-2 melanoma
# [41] = test system: SK-MEL-28 melanoma
# [42] = test system: SK-MEL-5 melanoma
# [43] = test system: SK-OV-3 ovarian
# [44] = test system: SN12C renal
# [45] = test system: SNB-75 CNS
# [46] = test system: SNB-78 CNS
# [47] = test system: SR leukemia
# [48] = test system: SW-620 colon
# [49] = test system: TK-10 renal
# [50] = test system: U251 CNS
# [51] = test system: UACC-257 melanoma
# [52] = test system: UACC-62 melanoma
# [53] = test system: UO-31 renal
# [54] = test system: EKVX NSCLC
# [55] = test system: HCC-2998 colon
# [56] = test system: SNB-19 CNS
compound,measurement,setting,value
Cc1cc(=O)[nH]c(NNC(C#N)c2ccc(O)cc2)n1 (configuration not stated),TGI,[1],> 100 µM
same,TGI,[2],> 100 µM
same,TGI,[3],> 100 µM
same,TGI,[4],> 100 µM
same,TGI,[5],> 100 µM
same,TGI,[6],> 100 µM
same,TGI,[7],> 100 µM
same,TGI,[8],> 100 µM
same,TGI,[9],> 100 µM
same,TGI,[10],> 100 µM
same,TGI,[11],> 100 µM
same,TGI,[12],> 100 µM
same,TGI,[13],> 100 µM
same,TGI,[14],> 100 µM
same,TGI,[15],> 100 µM
same,TGI,[16],> 100 µM
same,TGI,[17],> 100 µM
same,TGI,[18],> 100 µM
same,TGI,[19],> 100 µM
same,TGI,[20],> 100 µM
same,TGI,[21],> 100 µM
same,TGI,[22],> 100 µM
same,TGI,[23],> 100 µM
same,TGI,[24],> 100 µM
same,TGI,[25],> 100 µM
same,TGI,[26],> 100 µM
same,TGI,[27],> 100 µM
same,TGI,[28],> 100 µM
same,TGI,[29],> 100 µM
same,TGI,[30],> 100 µM
same,TGI,[31],> 100 µM
same,TGI,[32],> 100 µM
same,TGI,[33],> 100 µM
same,TGI,[34],> 100 µM
same,TGI,[35],> 100 µM
same,TGI,[36],> 100 µM
same,TGI,[37],> 100 µM
same,TGI,[38],> 100 µM
same,TGI,[39],> 100 µM
same,TGI,[40],> 100 µM
same,TGI,[41],> 100 µM
same,TGI,[42],> 100 µM
same,TGI,[43],> 100 µM
same,TGI,[44],> 100 µM
same,TGI,[45],> 100 µM
same,TGI,[46],> 100 µM
same,TGI,[47],> 100 µM
same,TGI,[48],> 100 µM
same,TGI,[49],> 100 µM
same,TGI,[50],> 100 µM
same,TGI,[51],> 100 µM
same,TGI,[52],> 100 µM
same,TGI,[53],> 100 µM
CC#CC(=O)Nc1ccccc1CC(c1c[nH]c2ccccc12)c1c[nH]c2ccccc12,TGI,[1],43 µM
same,TGI,[2],57.5 µM
same,TGI,[4],58.9 µM
same,TGI,[5],39.4 µM
same,TGI,[6],29.7 µM
same,TGI,[7],36.3 µM
same,TGI,[8],29.9 µM
same,TGI,[9],32.7 µM
same,TGI,[54],54.7 µM
same,TGI,[55],32.7 µM
same,TGI,[11],32.8 µM
same,TGI,[12],32.1 µM
same,TGI,[14],35.9 µM
same,TGI,[16],42.5 µM
same,TGI,[17],39.2 µM
same,TGI,[18],39.2 µM
same,TGI,[19],53.6 µM
same,TGI,[21],33.8 µM
same,TGI,[22],38 µM
same,TGI,[23],29.7 µM
same,TGI,[24],31.2 µM
same,TGI,[25],32.3 µM
same,TGI,[26],44.6 µM
same,TGI,[27],32.6 µM
same,TGI,[28],38.8 µM
same,TGI,[31],49.6 µM
same,TGI,[34],76.7 µM
same,TGI,[35],58.1 µM
same,TGI,[37],59 µM
same,TGI,[38],58.3 µM
same,TGI,[39],37.2 µM
same,TGI,[40],34.4 µM
same,TGI,[41],29.9 µM
same,TGI,[42],29.8 µM
same,TGI,[43],59.3 µM
same,TGI,[44],30 µM
same,TGI,[56],45.6 µM
same,TGI,[45],38.8 µM
same,TGI,[46],46.1 µM
same,TGI,[48],36.2 µM
same,TGI,[49],92.3 µM
same,TGI,[51],57.4 µM
same,TGI,[52],28.3 µM
same,TGI,[53],25.4 µM
